Legend:
[1] = test system: SU-DHL-4 subcutaneously transplanted tumor; test: Antitumor effect on subcutaneous transplant model in SCID mouse, DLBCL strain SU-DHL-4, compound 1a (Test Example 3); format: in vivo; conditions: for T/C: V/V0 of group divided by vehicle group; for Body Weight / Tumor Volume (mm^3): male SCID mouse; for Body Weight / V/V0 (tumor growth rate) / Tumor Volume (mm^3): mean of n=5; for Tumor Volume (mm^3): compound 1a 3 mg/kg i.v. (tail vein) 5 times a week for 2 weeks
Protocol: cells of DLBCL strain SU-DHL-4 (Code No. ACC 495, Deutsche Sammlung von Mikroorganismen and Zellkulturen GmbH) suspended in a 1:1 mixed solution of PBS and matrigel (CORNING Code No. 354234) were transplanted subcutaneously to the ventral side of a male SCID mouse. Eighteen days after the transplantation, the body weight and the tumor diameter were measured, the tumor volume was calculated by the following formula, and the mice were divided into two groups (n=5) so that the average tumor volume of each group was equal.
(§1) [Tumor volume (mm^3)]=[Tumor long diameter (mm)]×[Tumor short diameter (mm)]^2×0.5
The test was conducted in two groups, a vehicle administration group and a compound 1a administration group (compound administration group). To the compound 1a administration group, a solution of compound 1a dissolved in 30% DMSO/3% Tween 80/physiological saline so as to give a final concentration of 0.6 mg/mL was administered intravenously (tail vein) at 5 mL/kg (3 mg/kg) 5 times a week for 2 weeks. To the vehicle administration group, 30% DMSO/3% Tween 80/physiological saline was administered intravenously (tail vein) at 5 mL/kg on the same schedule as the compound 1a administration group. After the start of the test, body weight and tumor diameter were measured twice a week. The tumor volume on each measurement day was calculated by the above formula. The tumor growth rate (hereinafter referred to as V/VO) was calculated by dividing the tumor volume V on each measurement day by the tumor volume VO on the test start day (Day 0). The T/C was calculated by dividing the average value (T) of V/VO of each group by the average value (C) of the vehicle administration group.

[2] = test system: SU-DHL-4 subcutaneously transplanted tumor; test: Antitumor effect on subcutaneous transplant model in SCID mouse, DLBCL strain SU-DHL-4, compound 1b (Test Example 9); format: in vivo; conditions: for Tumor Volume (mm^3): compound 1b 10 mg/kg i.v. (tail vein) once on the test start day; for Tumor Volume (mm^3) / Body Weight: male SCID mouse; for Tumor Volume (mm^3) / Body Weight / V/V0 (tumor growth rate): mean of n=5; for T/C: V/V0 of group divided by vehicle group
Protocol: 1×10^7 cells of DLBCL strain SU-DHL-4 (Code No. ACC 495, Deutsche Sammlung von Mikroorganismen and Zellkulturen GmbH) suspended in a 1:1 mixed solution of PBS and matrigel (CORNING Code No. 354234) were transplanted subcutaneously on the ventral side of male SCID mouse. 14 days after the transplantation, the body weight and tumor diameter were measured, the tumor volume was calculated by the following formula, and the mice were divided into two groups (n=5) so that the average tumor volume of each group was equal. E-workbook software (ID Business Solutions) was used for grouping and measurement.
as §1
To the compound 1b administration group, a solution of compound 1b dissolved in 30% DMSO/3% Tween 80/physiological saline so as to give a final concentration of 2 mg/mL was administered intravenously (tail vein) at 5 mL/kg (10 mg/kg) once on the test start day. To the vehicle administration group, 30% DMSO/3% Tween 80/physiological saline was administered intravenously (tail vein) at 5 mL/kg in the same schedule as in the compound 1b administration group. After the start of the test, body weight and tumor diameter were measured twice a week. The tumor volume on each measurement day was calculated by the above formula. The tumor growth rate (hereinafter referred to as V/VO) was calculated by dividing the tumor volume V on each measurement day by the tumor volume VO on the test start date (Day 0). The T/C was calculated by dividing the average value (T) of V/VO of each group by the average value (C) of the vehicle administration group.

[3] = Day 0, compound 1a 3 mg/kg i.v. 5 times a week for 2 weeks
[4] = Day 3, compound 1a 3 mg/kg i.v. 5 times a week for 2 weeks
[5] = Day 7, compound 1a 3 mg/kg i.v. 5 times a week for 2 weeks
[6] = Day 10, compound 1a 3 mg/kg i.v. 5 times a week for 2 weeks
[7] = Day 14, compound 1a 3 mg/kg i.v. 5 times a week for 2 weeks
[8] = Day 18, compound 1a 3 mg/kg i.v. 5 times a week for 2 weeks
[9] = compound 1a 3 mg/kg i.v. 5 times a week for 2 weeks, SCID mouse
[10] = Day 0, compound 1b 10 mg/kg i.v. once
[11] = Day 4, compound 1b 10 mg/kg i.v. once
[12] = Day 7, compound 1b 10 mg/kg i.v. once
[13] = Day 10, compound 1b 10 mg/kg i.v. once
[14] = Day 14, compound 1b 10 mg/kg i.v. once
[15] = Day 17, compound 1b 10 mg/kg i.v. once
[16] = compound 1b 10 mg/kg i.v. once, SCID mouse

CCC(=O)N1c2ccccc2[C@H](Nc2ccc(C(=O)NCCCNC(=O)c3ccc(N[C@@H]4C[C@H](C)N(C(=O)CC)c5ccccc54)cc3)cc2)C[C@@H]1C (relative stereo) [Compound 1a, N,N′-(Propane-1,3-diyl)bis(4-{[(2S*,4R*)-2-methyl-1-propionyl-1,2,3,4-tetrahydroquinolin-4-yl]amino}benzamide)]
T/C [1, 3]: 1.00 | Body Weight [1, 3]: 24.56 g | V/V0 (tumor growth rate) [1, 3]: 1.00 | Tumor Volume (mm^3) ([1]; Day 0): 246.14 mm^3 | T/C [1, 4]: 0.71 | Body Weight [1, 4]: 25.36 g | V/V0 (tumor growth rate) [1, 4]: 1.15 | Tumor Volume (mm^3) ([1]; Day 3): 284.29 mm^3 | T/C [1, 5]: 0.48 | Body Weight [1, 5]: 25.44 g | V/V0 (tumor growth rate) [1, 5]: 1.29 | Tumor Volume (mm^3) ([1]; Day 7): 326.25 mm^3 | T/C [1, 6]: 0.22 | Body Weight [1, 6]: 25.14 g | V/V0 (tumor growth rate) [1, 6]: 0.85 | Tumor Volume (mm^3) ([1]; Day 10): 214.74 mm^3 | T/C [1, 7]: 0.17 | Body Weight [1, 7]: 25.74 g | V/V0 (tumor growth rate) [1, 7]: 0.89 | Tumor Volume (mm^3) ([1]; Day 14): 224.55 mm^3 | T/C [1, 8]: 0.16 | Body Weight [1, 8]: 26.23 g | V/V0 (tumor growth rate) [1, 8]: 1.30 | Tumor Volume (mm^3) ([1]; Day 18): 325.61 mm^3 | antitumor effect on SU-DHL-4 subcutaneously transplanted tumor [1, 9]: potent antitumor effect | weight loss [1, 9]: no weight loss was observed

Cc1sc2c(c1C)C(c1ccc(C(=O)NCCCNC(=O)c3ccc(C4=N[C@@H](CC(=O)OC(C)(C)C)c5nnc(C)n5-c5sc(C)c(C)c54)cc3)cc1)=N[C@@H](CC(=O)OC(C)(C)C)c1nnc(C)n1-2 [Compound 1b, Di-tert-butyl 2,2′-[(6S,6′S)-({[propane-1,3-diylbis(azanediyl)]bis(carbonyl)}bis(4,1-phenylene))bis(2,3,9-trimethyl-6H-thieno[3,2-f][1,2,4]triazolo[4,3-a][1,4]diazepine-4,6-diyl)]diacetate]
Tumor Volume (mm^3) ([2]; Day 0): 208 mm^3 | T/C [2, 10]: 1.00 | Body Weight [2, 10]: 25 g | V/V0 (tumor growth rate) [2, 10]: 1.00 | Tumor Volume (mm^3) ([2]; Day 4): 101 mm^3 | T/C [2, 11]: 0.31 | Body Weight [2, 11]: 25 g | V/V0 (tumor growth rate) [2, 11]: 0.49 | Tumor Volume (mm^3) ([2]; Day 7): 49 mm^3 | T/C [2, 12]: 0.12 | Body Weight [2, 12]: 25 g | V/V0 (tumor growth rate) [2, 12]: 0.24 | Tumor Volume (mm^3) ([2]; Day 10): 66 mm^3 | T/C [2, 13]: 0.11 | Body Weight [2, 13]: 26 g | V/V0 (tumor growth rate) [2, 13]: 0.32 | Tumor Volume (mm^3) ([2]; Day 14): 87 mm^3 | T/C [2, 14]: 0.12 | Body Weight [2, 14]: 26 g | V/V0 (tumor growth rate) [2, 14]: 0.42 | Tumor Volume (mm^3) ([2]; Day 17): 122 mm^3 | T/C [2, 15]: 0.13 | Body Weight [2, 15]: 27 g | V/V0 (tumor growth rate) [2, 15]: 0.59 | antitumor effect on SU-DHL-4 subcutaneously transplanted tumor [2, 16]: potent antitumor effect | weight loss [2, 16]: no weight loss was observed

Source: US20220378923A1, “BET DEGRADER” (KYOWA KIRIN CO., LTD., priority 2019, published 2022)
